{"source": "patent US20160058814A1", "about": "“PLANT EXTRACTS AND RELATED COMPOSITIONS, METHODS AND SYSTEMS” (priority 2014, published 2016)", "origin": "cited, not measured here", "settings": "in vivo"}
{"smiles": "O=c1ccc2ccccc2o1", "note": "[Coumarin, coumarin]", "values": [{"measurement": "LD50", "value": 275, "unit": "mg/kg"}]}
